Columns and labels:
[1] = target: T1, ATP-binding cassette sub-family C member 2 (Homo sapiens, UniProt Q92887); experiment: TP_TRANSPORTER: inhibition of PAH uptake (PAH: 0.1uM) in membrane vesicles from MRP2-expressing HEK cells; assay type: functional, cell membranes, HEK293, Membrane vesicle
[2] = target: T1, ATP-binding cassette sub-family C member 2; experiment: TP_TRANSPORTER: uptake in membrane vesicles from MRP2-expressing HEK cells; assay type: functional, cell membranes, Membrane vesicle; settings: hek293

T1 sequence (Q92887 whole entry): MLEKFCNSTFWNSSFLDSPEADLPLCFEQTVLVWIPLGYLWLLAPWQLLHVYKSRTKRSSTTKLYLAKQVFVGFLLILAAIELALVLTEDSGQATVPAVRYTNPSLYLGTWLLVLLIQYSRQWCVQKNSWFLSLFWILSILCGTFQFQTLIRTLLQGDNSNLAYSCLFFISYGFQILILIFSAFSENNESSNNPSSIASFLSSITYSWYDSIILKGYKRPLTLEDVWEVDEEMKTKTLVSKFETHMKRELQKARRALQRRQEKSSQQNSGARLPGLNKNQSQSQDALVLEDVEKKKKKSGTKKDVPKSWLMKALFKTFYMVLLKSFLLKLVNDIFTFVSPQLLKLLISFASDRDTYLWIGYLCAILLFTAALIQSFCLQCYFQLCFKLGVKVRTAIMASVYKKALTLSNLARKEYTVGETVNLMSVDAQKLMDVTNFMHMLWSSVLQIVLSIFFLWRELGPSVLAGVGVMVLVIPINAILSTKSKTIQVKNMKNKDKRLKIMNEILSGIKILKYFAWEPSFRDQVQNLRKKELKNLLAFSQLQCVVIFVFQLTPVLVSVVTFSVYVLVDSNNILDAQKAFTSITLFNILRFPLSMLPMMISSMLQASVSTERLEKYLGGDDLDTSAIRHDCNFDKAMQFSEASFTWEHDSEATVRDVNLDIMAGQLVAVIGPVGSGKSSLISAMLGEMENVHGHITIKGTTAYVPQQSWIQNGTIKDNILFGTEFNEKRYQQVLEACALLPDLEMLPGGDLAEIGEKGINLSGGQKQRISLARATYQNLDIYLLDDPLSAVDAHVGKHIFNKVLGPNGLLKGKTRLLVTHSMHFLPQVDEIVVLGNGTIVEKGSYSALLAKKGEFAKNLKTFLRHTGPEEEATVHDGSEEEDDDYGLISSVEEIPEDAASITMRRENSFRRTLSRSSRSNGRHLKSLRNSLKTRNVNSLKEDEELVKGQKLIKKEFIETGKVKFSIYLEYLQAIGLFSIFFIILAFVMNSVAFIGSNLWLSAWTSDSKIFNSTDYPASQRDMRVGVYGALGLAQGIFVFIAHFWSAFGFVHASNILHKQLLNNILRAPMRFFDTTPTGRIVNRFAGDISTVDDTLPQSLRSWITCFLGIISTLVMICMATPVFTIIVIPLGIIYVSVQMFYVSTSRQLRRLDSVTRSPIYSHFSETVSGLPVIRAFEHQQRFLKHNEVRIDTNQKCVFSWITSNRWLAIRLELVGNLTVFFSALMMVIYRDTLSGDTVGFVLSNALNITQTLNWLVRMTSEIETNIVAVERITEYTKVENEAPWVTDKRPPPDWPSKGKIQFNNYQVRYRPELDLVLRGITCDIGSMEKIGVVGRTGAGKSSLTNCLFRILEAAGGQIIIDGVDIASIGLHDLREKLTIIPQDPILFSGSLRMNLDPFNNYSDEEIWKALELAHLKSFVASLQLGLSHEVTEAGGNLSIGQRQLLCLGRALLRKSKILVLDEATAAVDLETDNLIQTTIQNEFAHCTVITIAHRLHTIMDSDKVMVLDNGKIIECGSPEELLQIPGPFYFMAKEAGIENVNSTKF

| Compound | IC50 [1] [µM] | Activity [2] |
| --- | --- | --- |
| CN(C)C(=O)CCSC(SCCC(=O)O)c1cccc(/C=C/c2ccc3ccc(Cl)cc3n2)c1 (centres undefined) [MK-571] | 4 | – |
| C[C@@H]1Cc2c(Cl)cc(C(=O)N[C@@H](Cc3ccccc3)C(=O)O)c(O)c2C(=O)O1 [3R14S-OCHRATOXIN A] | 58 | substrate [+] |
| CCCCC/C=C\C\C=C/C=C/C=C/[C@@H](SC[C@@H](NC(=O)CC[C@H](N)C(=O)O)C(=O)NCC(=O)O)[C@@H](O)CCCC(=O)O [LEUKOTRIEN C4] | 3.3 | – |

From ChEMBL document CHEMBL2074311, “ATP-dependent para-aminohippurate transport by apical multidrug resistance protein MRP2” (Kidney Int, 2000)
